Measurements taken from patent US20250101041A1, “POSITIVE ALLOSTERIC MODULATORS OF THE MUSCARINIC ACETYLCHOLINE RECEPTOR M4” (Vanderbilt University, priority 2022, published 2025).

Biological target: T1, human mAChR M4 (Homo sapiens, UniProt P08173)
T1 construct: expressed in transfected cells; host or cells: CHO-K1 (American Type Culture Collection), stably expressing hM4 and Gqi5
T1 sequence (P08173 1-479): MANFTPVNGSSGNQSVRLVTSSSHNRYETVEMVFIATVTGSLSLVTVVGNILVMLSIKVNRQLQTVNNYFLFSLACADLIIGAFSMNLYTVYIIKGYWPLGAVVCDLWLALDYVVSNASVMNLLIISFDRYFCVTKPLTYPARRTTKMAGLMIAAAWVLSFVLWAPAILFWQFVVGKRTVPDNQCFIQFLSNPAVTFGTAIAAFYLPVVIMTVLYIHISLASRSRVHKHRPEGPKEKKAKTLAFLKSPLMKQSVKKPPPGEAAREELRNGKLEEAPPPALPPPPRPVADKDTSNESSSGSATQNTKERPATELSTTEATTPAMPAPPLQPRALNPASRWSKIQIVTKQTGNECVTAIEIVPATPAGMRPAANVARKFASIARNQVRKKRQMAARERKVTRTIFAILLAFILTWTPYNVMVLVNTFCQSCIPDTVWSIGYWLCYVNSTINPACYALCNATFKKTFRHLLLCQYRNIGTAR
Test: mAChR M4 cell-based functional assay: calcium mobilization (Fluo-4, FDSS), potentiation of EC20 acetylcholine response in hM4-Gqi5 CHO-K1 cells
Conditions: human M4; for Emax at 30 µM: CHO-K1, % ACh maximum at 30 μM; for EC50: potentiation of EC20 acetylcholine response, calcium mobilization
How it was run: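 CHO-K1 cells stably co-expressing human M4 and chimeric Gqi5, loaded with Fluo-4 AM (50 min, 37 °C). Compounds in 11-point 1:3 series added first; EC20 acetylcholine added at 144 s and again at 230 s. Calcium read on FDSS at 1 Hz; EC50 and Emax from four-parameter logistic fit of potentiated EC20 response.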

Structure (SMILES) | Emax at 30 µM | EC50
Cc1cc2nccc(=O)n2nc1N1CCc2ncc(NC(=O)c3ncco3)cc2C1 [Compound 2-122, N-(6-(8-methyl-4-oxo-4H-pyrimido[1,2-b]pyridazin-7-yl)-5,6,7,8-tetrahydro-1,6-naphthyridin-3-yl)oxazole-2-carboxamide] | 44% | 1880 nM
Cc1cc2nccc(=O)n2nc1N1CCc2ncc(Nc3ccnc(F)c3)cc2C1 [Compound 2-123, 7-(3-((2-fluoropyridin-4-yl)amino)-7,8-dihydro-1,6-naphthyridin-6(5H)-yl)-8-methyl-4H-pyrimido[1,2-b]pyridazin-4-one] | 92% | 16 nM
Cc1ccncc1Nc1cnc2c(c1)CN(c1nn3c(=O)ccnc3cc1C)CC2 [Compound 2-124, 8-methyl-7-(3-((4-methylpyridin-3-yl)amino)-7,8-dihydro-1,6-naphthyridin-6(5H)-yl)-4H-pyrimido[1,2-b]pyridazin-4-one] | 87% | 163 nM
Cc1cc2nccc(=O)n2nc1N1CCc2ncc(Nc3cnccn3)cc2C1 [Compound 2-127, 8-methyl-7-(3-(pyrazin-2-ylamino)-7,8-dihydro-1,6-naphthyridin-6(5H)-yl)-4H-pyrimido[1,2-b]pyridazin-4-one] | 64% | 2540 nM
Cc1ncc(CNc2cnc3c(c2)CN(c2nn4c(=O)ccnc4cc2C)CC3)o1 [Compound 2-129, 8-methyl-7-(3-(((2-methyloxazol-5-yl)methyl)amino)-7,8-dihydro-1,6-naphthyridin-6(5H)-yl)-4H-pyrimido[1,2-b]pyridazin-4-one] | 105% | 686 nM
Cc1cc2nccc(=O)n2nc1N1CCc2ncc(NCc3cscn3)cc2C1 [Compound 2-130, 8-methyl-7-(3-((thiazol-4-ylmethyl)amino)-7,8-dihydro-1,6-naphthyridin-6(5H)-yl)-4H-pyrimido[1,2-b]pyridazin-4-one] | 87% | 508 nM
Cc1cc(Nc2cnc3c(c2)CN(c2nn4c(=O)ccnc4cc2C)CC3)cnc1Cl [Compound 2-132, 7-(3-((6-chloro-5-methylpyridin-3-yl)amino)-7,8-dihydro-1,6-naphthyridin-6(5H)-yl)-8-methyl-4H-pyrimido[1,2-b]pyridazin-4-one] | 93% | 587 nM
Cc1cc2nccc(=O)n2nc1N1CCc2ncc(Nc3ccnnc3)cc2C1 [Compound 2-136, 8-methyl-7-(3-(pyridazin-4-ylamino)-7,8-dihydro-1,6-naphthyridin-6(5H)-yl)-4H-pyrimido[1,2-b]pyridazin-4-one] | 101% | 308 nM
COc1cncc(Nc2cnc3c(c2)CN(c2nn4c(=O)ccnc4cc2C)CC3)c1 [Compound 2-137, 7-(3-((5-methoxypyridin-3-yl)amino)-7,8-dihydro-1,6-naphthyridin-6(5H)-yl)-8-methyl-4H-pyrimido[1,2-b]pyridazin-4-one] | 98% | 324 nM
Cc1cc2nccc(=O)n2nc1N1CCc2ncc(Nc3cncnc3C)cc2C1 [Compound 2-139, 8-methyl-7-(3-((4-methylpyrimidin-5-yl)amino)-7,8-dihydro-1,6-naphthyridin-6(5H)-yl)-4H-pyrimido[1,2-b]pyridazin-4-one] | 97% | 1820 nM
COc1cc(Nc2cnc3c(c2)CN(c2nn4c(=O)ccnc4cc2C)CC3)ccn1 [Compound 2-141, 7-(3-((2-methoxypyridin-4-yl)amino)-7,8-dihydro-1,6-naphthyridin-6(5H)-yl)-8-methyl-4H-pyrimido[1,2-b]pyridazin-4-one] | 100% | 21 nM
Cc1cc2nccc(=O)n2nc1N1CCc2ncc(Nc3cncc(Cl)c3)cc2C1 [Compound 2-142, 7-(3-((5-chloropyridin-3-yl)amino)-7,8-dihydro-1,6-naphthyridin-6(5H)-yl)-8-methyl-4H-pyrimido[1,2-b]pyridazin-4-one] | 66% | 182 nM
Cc1c(N2CCc3ncc(N4CC(C)(C)CC4=O)cc3C2)nn2c(=O)ccnc2c1C [Compound 2-145, 7-(3-(4,4-dimethyl-2-oxopyrrolidin-1-yl)-7,8-dihydro-1,6-naphthyridin-6(5H)-yl)-8,9-dimethyl-4H-pyrimido[1,2-b]pyridazin-4-one] | 68% | 1750 nM
Cc1c(N2CCc3ncc(N4CCCS4(=O)=O)cc3C2)nn2c(=O)ccnc2c1C [Compound 2-146, 7-(3-(1,1-dioxidoisothiazolidin-2-yl)-7,8-dihydro-1,6-naphthyridin-6(5H)-yl)-8,9-dimethyl-4H-pyrimido[1,2-b]pyridazin-4-one] | 78% | 1480 nM
Cc1c(N2CCc3ncc(N4CCC(C)(C)C4=O)cc3C2)nn2c(=O)ccnc2c1C [Compound 2-148, 7-(3-(3,3-dimethyl-2-oxopyrrolidin-1-yl)-7,8-dihydro-1,6-naphthyridin-6(5H)-yl)-8,9-dimethyl-4H-pyrimido[1,2-b]pyridazin-4-one] | 86% | 1030 nM

Further lines, results first:

Emax at 30 µM | EC50 | Structure (SMILES)
58% |  | Cc1cc2nccc(=O)n2nc1N1CCc2ncc(Nc3ccc(C4CC4)nc3)cc2C1 [Compound 2-125, 7-(3-((6-cyclopropylpyridin-3-yl)amino)-7,8-dihydro-1,6-naphthyridin-6(5H)-yl)-8-methyl-4H-pyrimido[1,2-b]pyridazin-4-one]
79% | 263 nM | Cc1cc2nccc(=O)n2nc1N1CCc2ncc(Nc3ccc(Cl)nc3)cc2C1 [Compound 2-126, 7-(3-((6-chloropyridin-3-yl)amino)-7,8-dihydro-1,6-naphthyridin-6(5H)-yl)-8-methyl-4H-pyrimido[1,2-b]pyridazin-4-one]
82% | 90 nM | Cc1cc2nccc(=O)n2nc1N1CCc2ncc(Nc3cncc(F)c3)cc2C1 [Compound 2-128, 7-(3-((5-fluoropyridin-3-yl)amino)-7,8-dihydro-1,6-naphthyridin-6(5H)-yl)-8-methyl-4H-pyrimido[1,2-b]pyridazin-4-one]
73% | 2790 nM | Cc1cc2nccc(=O)n2nc1N1CCc2ncc(NCc3cncn3C)cc2C1 [Compound 2-131, 8-methyl-7-(3-(((1-methyl-1H-imidazol-5-yl)methyl)amino)-7,8-dihydro-1,6-naphthyridin-6(5H)-yl)-4H-pyrimido[1,2-b]pyridazin-4-one]
96% | 184 nM | Cc1cncc(Nc2cnc3c(c2)CN(c2nn4c(=O)ccnc4cc2C)CC3)c1 [Compound 2-133, 8-methyl-7-(3-((5-methylpyridin-3-yl)amino)-7,8-dihydro-1,6-naphthyridin-6(5H)-yl)-4H-pyrimido[1,2-b]pyridazin-4-one]
90% | 290 nM | COc1ccc(Nc2cnc3c(c2)CN(c2nn4c(=O)ccnc4cc2C)CC3)cn1 [Compound 2-134, 7-(3-((6-methoxypyridin-3-yl)amino)-7,8-dihydro-1,6-naphthyridin-6(5H)-yl)-8-methyl-4H-pyrimido[1,2-b]pyridazin-4-one]
96% | 112 nM | Cc1cc2nccc(=O)n2nc1N1CCc2ncc(Nc3cnccc3Cl)cc2C1 [Compound 2-135, 7-(3-((4-chloropyridin-3-yl)amino)-7,8-dihydro-1,6-naphthyridin-6(5H)-yl)-8-methyl-4H-pyrimido[1,2-b]pyridazin-4-one]
87% | 747 nM | Cc1cc2nccc(=O)n2nc1N1CCc2ncc(Nc3cncc(C(F)(F)F)c3)cc2C1 [Compound 2-138, 8-methyl-7-(3-((5-(trifluoromethyl)pyridin-3-yl)amino)-7,8-dihydro-1,6-naphthyridin-6(5H)-yl)-4H-pyrimido[1,2-b]pyridazin-4-one]
56% | 985 nM | COc1ccnc(Nc2cnc3c(c2)CN(c2nn4c(=O)ccnc4cc2C)CC3)n1 [Compound 2-140, 7-(3-((4-methoxypyrimidin-2-yl)amino)-7,8-dihydro-1,6-naphthyridin-6(5H)-yl)-8-methyl-4H-pyrimido[1,2-b]pyridazin-4-one]
82% | 469 nM | Cc1cc2nccc(=O)n2nc1N1CCc2ncc(Nc3ccc(F)nc3C)cc2C1 [Compound 2-143, 7-(3-((6-fluoro-2-methylpyridin-3-yl)amino)-7,8-dihydro-1,6-naphthyridin-6(5H)-yl)-8-methyl-4H-pyrimido[1,2-b]pyridazin-4-one]
98% | 1580 nM | Cc1c(N2CCc3ncc(N4CCOC4=O)cc3C2)nn2c(=O)ccnc2c1C [Compound 2-144, 3-(6-(8,9-dimethyl-4-oxo-4H-pyrimido[1,2-b]pyridazin-7-yl)-5,6,7,8-tetrahydro-1,6-naphthyridin-3-yl)oxazolidin-2-one]
100% | 1240 nM | Cc1c(N2CCc3ncc(N=S4(=O)CCCC4)cc3C2)nn2c(=O)ccnc2c1C [Compound 2-147, 8,9-dimethyl-7-(3-((1-oxidotetrahydro-126-thiophen-1-ylidene)amino)-7,8-dihydro-1,6-naphthyridin-6(5H)-yl)-4H-pyrimido[1,2-b]pyridazin-4-one]
